# In ChEMBL document CHEMBL3853264 (Medchemcomm, 2016):
# Assays:
# [1] = Intrinsic clearance in rat liver microsomes; type: ADME; conditions: read-out: CLH
# P-gp = assay: Substrate activity at p-gp (unknown origin) assessed as efflux ratio of permeability; type: ADME; conditions: human, not told
# BCRP (ABCG2) = BCRP (ABCG2) (Homo sapiens, UniProt Q9UNQ0); assay: Substrate activity at BCRP (unknown origin) assessed as efflux ratio of permeability; type: ADME; conditions: not told
# [2] = Solubility of the compound at pH 6.5; type: physicochemical; conditions: buffer
# [3] = Dissociation constant, pKa of the compound; type: physicochemical
# [4] = Intrinsic clearance in human liver microsomes; type: ADME; conditions: read-out: CLH
# [5] = Octanol-water partition co-efficient, log D of the compound by shake flask method; type: physicochemical
# [6] = Permeability in RRCK cells; type: ADME, cell-based, Canis lupus familiaris, MDCKII-LE; conditions: dog, MDCK; read-out: permeability
# [7] = Intrinsic clearance in dog liver microsomes; type: ADME, Canis lupus familiaris; conditions: read-out: CLH
# [8] = Fraction unbound in human plasma; type: ADME, cell-free
# [9] = Fraction unbound in rat plasma; type: ADME, cell-free
# [10] = Fraction unbound in dog plasma; type: ADME, cell-free, Canis lupus familiaris
# [11] = molecular target: Solute carrier organic anion transporter family member 1B1 (Homo sapiens, UniProt Q9Y6L6); assay: Drug uptake assessed as human OATP1B1-mediated drug accumulation by cell-based assay relative to wild type protein; type: ADME
# [12] = molecular target: Solute carrier organic anion transporter family member 1B3 (Homo sapiens, UniProt Q9NPD5); assay: Drug uptake assessed as human OATP1B3-mediated drug accumulation by cell-based assay relative to wild type protein; type: ADME
# [13] = molecular target: Solute carrier organic anion transporter family member 2B1 (Homo sapiens, UniProt O94956); assay: Drug uptake assessed as human OATP2B1-mediated drug accumulation by cell-based assay relative to wild type protein; type: ADME
# Cytochrome P450 1A2 = Cytochrome P450 1A2 (Homo sapiens, UniProt P05177); assay: Inhibition of CYP1A2 (unknown origin); type: ADME
# Cytochrome P450 2C8 = Cytochrome P450 2C8 (Homo sapiens, UniProt P10632); assay: Inhibition of CYP2C8 (unknown origin); type: ADME
# Cytochrome P450 2C9 = Cytochrome P450 2C9 (Homo sapiens, UniProt P11712); assay: Inhibition of CYP2C9 (unknown origin); type: ADME
# Cytochrome P450 2C19 = Cytochrome P450 2C19 (Homo sapiens, UniProt P33261); assay: Inhibition of CYP2C19 (unknown origin); type: ADME
# Cytochrome P450 2D6 = Cytochrome P450 2D6 (Homo sapiens, UniProt P10635); assay: Inhibition of CYP2D6 (unknown origin); type: ADME
# Cytochrome P450 3A4 = Cytochrome P450 3A4 (Homo sapiens, UniProt P08684); assay: Inhibition of CYP3A4 (unknown origin); type: ADME
# [14] = molecular target: Solute carrier family 22 member 6 (Homo sapiens, UniProt Q4U2R8); assay: Inhibition of OAT1 (unknown origin)
# [15] = molecular target: Organic anion transporter 3 (Homo sapiens, UniProt Q8TCC7); assay: Inhibition of OAT3 (unknown origin)
# [16] = molecular target: Solute carrier family 22 member 11 (Homo sapiens, UniProt Q9NSA0); assay: Inhibition of OAT4 (unknown origin)
# [17] = Cytotoxicity against THLE cells; type: toxicity, cell-based; conditions: human
# [18] = Mutagenicity in […] by Ames test in presence of […] fraction; type: toxicity
# [19] = Mutagenicity in […] by Ames test in absence of […] fraction; type: toxicity
# [20] = molecular target: Voltage-gated inwardly rectifying potassium channel KCNH2 (Homo sapiens, UniProt Q12809); assay: Inhibition of human ERG by patch clamp method
# [21] = molecular target: Sodium channel protein type 5 subunit alpha (Homo sapiens, UniProt Q14524); assay: Inhibition of human NaV1.5 expressed in HEK293 cells by patch clamp method; type: cell-based
# [22] = molecular target: Sodium channel protein type 9 subunit alpha (Homo sapiens, UniProt Q15858); assay: Inhibition of NaV1.7 (unknown origin) by electrophysiology assay
# [23] = Inhibition of GABAA receptor (unknown origin); design: species or system Homo sapiens
# [24] = Intrinsic clearance in human hepatocytes assessed per 10^6 cells; type: ADME, cell-based, Hepatocyte; conditions: read-out: CLH
# [25] = Intrinsic clearance in rat hepatocytes assessed per 10^6 cells; type: ADME, cell-based, Hepatocyte; conditions: read-out: CLH
# [26] = Intrinsic clearance in dog hepatocytes assessed per 10^6 cells; type: ADME, cell-based, Canis lupus familiaris, Hepatocyte; conditions: read-out: CLH
# [27] = Plasma clearance in rat at 0.5 mg/kg, iv and 1 mg/kg, po; type: ADME, organism-based
# [28] = Unbound clearance in rat at 0.5 mg/kg, iv and 1 mg/kg, po; type: ADME, organism-based; conditions: in vivo
# [29] = Half life in rat at 0.5 mg/kg, iv and 1 mg/kg, po; type: ADME, organism-based; conditions: in vivo
# [30] = Volume of distribution at steady state in rat at 0.5 mg/kg, iv and 1 mg/kg, po; type: ADME, organism-based; conditions: in vivo, read-out: Vdss
# [31] = Oral bioavailability in rat at 1 mg/kg; type: ADME, organism-based; conditions: in vivo
# [32] = Drug excretion in bile of bile duct cannulated rat; type: ADME; conditions: read-out: Drug excretion
# [33] = Drug metabolism in human liver microsomes assessed as 2-chloro-4-(2-cyano-4-(N-(5-fluoropyridin-2-yl)sulfamoyl)phenoxy)benzoic acid formation; type: ADME
# [34] = Drug metabolism in human hepatocytes assessed as 2-chloro-4-(2-cyano-4-(N-(5-fluoropyridin-2-yl)sulfamoyl)phenoxy)benzoic acid formation; type: ADME, cell-based, Hepatocyte
# [35] = Drug metabolism in rat hepatocytes assessed as (2S,3S,4S,5R,6R)-6-(2-chloro-4-(2-cyano-4-(N-(5-fluoropyridin-2-yl)sulfamoyl)phenoxy)benzyloxy)-3,4,5-trihydroxytetrahydro-2H-pyran-2-carboxylic acid formation; type: ADME, cell-based, Hepatocyte
# [36] = Toxicity in po dosed dog measured assessed as drug tolerance measured over 14 days; type: organism-based, Canis lupus familiaris; conditions: in vivo, 336 h
# [37] = Toxicity in dog up to 100 mg/kg/day, po measured over 14 days by clinical pathology test; type: organism-based, Canis lupus familiaris; conditions: in vivo, 336 h
# Rattus norvegicus [38] = assay: Toxicity in rat assessed as change in body weight up to 300 mg/kg/day, po measured over 14 days; type: organism-based; conditions: in vivo, 336 h
# Rattus norvegicus [39] = assay: Toxicity in rat assessed as change in food consumption up to 300 mg/kg/day, po measured over 14 days; type: organism-based; conditions: in vivo, 336 h
# Rattus norvegicus [40] = assay: Toxicity in rat assessed as hematological changes up to 300 mg/kg/day, po measured over 14 days; type: organism-based; conditions: in vivo, 336 h
# Rattus norvegicus [41] = assay: Toxicity in rat up to 300 mg/kg/day, po measured over 14 days by clinical chemistry study; type: organism-based; conditions: in vivo, 336 h
# Rattus norvegicus [42] = assay: Toxicity in rat assessed as change in organ weight up to 300 mg/kg/day, po measured over 14 days; type: organism-based; conditions: in vivo, 336 h
# Rattus norvegicus [43] = assay: Toxicity in rat up to 300 mg/kg/day, po measured over 14 days by necropsy; type: organism-based; conditions: in vivo, 336 h
# Rattus norvegicus [44] = assay: Toxicity in rat up to 300 mg/kg/day, po measured over 14 days by microscopic study; type: organism-based; conditions: in vivo, 336 h
# [45] = Unbound Cmax in rat at 300 mg/kg, po administered as single dose measured on day 14; type: ADME, organism-based; conditions: in vivo
# [46] = Average plasma concentration in rat at 300 mg/kg, po administered as single dose measured on day 14; type: ADME, organism-based; conditions: in vivo
# Rattus norvegicus [47] = assay: Toxicity in po dosed rat assessed as drug tolerance measured over 14 days; type: organism-based; conditions: in vivo, 336 h
# [48] = Toxicity in dog up to 100 mg/kg/day, po measured over 14 days by histologic test; type: organism-based, Canis lupus familiaris; conditions: in vivo, 336 h
# [49] = Toxicity in dog assessed as emesis at 100 mg/kg/day, po measured over 14 days by histologic test; type: organism-based, Canis lupus familiaris; conditions: in vivo, 336 h
# [50] = Toxicity in dog assessed as salivation at 100 mg/kg/day, po measured over 14 days by histologic test; type: organism-based, Canis lupus familiaris; conditions: in vivo, 336 h
# [51] = Toxicity in dog assessed as decrease in hepatic glycogen content at 100 mg/kg/day, po measured over 14 days; type: organism-based, Canis lupus familiaris; conditions: in vivo, 336 h
# [52] = Toxicity in dog assessed as decrease in serum glucose at 100 mg/kg/day, po measured over 14 days; type: organism-based, Canis lupus familiaris; conditions: in vivo, 336 h
# [53] = Unbound Cmax in dog at 100 mg/kg, po administered as single dose measured on day 14; type: ADME, organism-based, Canis lupus familiaris; conditions: in vivo
# [54] = Average plasma concentration in dog at 100 mg/kg, po administered as single dose measured on day 14; type: ADME, organism-based, Canis lupus familiaris; conditions: in vivo
# Rattus norvegicus [55] = assay: Cardiovascular toxicity in rat up to 30 mg/kg/day, po measured over 14 days; type: organism-based; conditions: in vivo, 336 h
# Rattus norvegicus [56] = assay: Toxicity in rat assessed as increase in blood pressure at 100 mg/kg/day, po measured over 14 days; type: organism-based; conditions: in vivo, 336 h
# [57] = Unbound Cmax in rat at 30 mg/kg, po administered as single dose measured on day 14; type: ADME, organism-based; conditions: in vivo
# [58] = Average plasma concentration in rat at 30 mg/kg, po administered as single dose measured on day 14; type: ADME, organism-based; conditions: in vivo
# Chain of Cytochrome P450 2C19 (P33261 whole entry): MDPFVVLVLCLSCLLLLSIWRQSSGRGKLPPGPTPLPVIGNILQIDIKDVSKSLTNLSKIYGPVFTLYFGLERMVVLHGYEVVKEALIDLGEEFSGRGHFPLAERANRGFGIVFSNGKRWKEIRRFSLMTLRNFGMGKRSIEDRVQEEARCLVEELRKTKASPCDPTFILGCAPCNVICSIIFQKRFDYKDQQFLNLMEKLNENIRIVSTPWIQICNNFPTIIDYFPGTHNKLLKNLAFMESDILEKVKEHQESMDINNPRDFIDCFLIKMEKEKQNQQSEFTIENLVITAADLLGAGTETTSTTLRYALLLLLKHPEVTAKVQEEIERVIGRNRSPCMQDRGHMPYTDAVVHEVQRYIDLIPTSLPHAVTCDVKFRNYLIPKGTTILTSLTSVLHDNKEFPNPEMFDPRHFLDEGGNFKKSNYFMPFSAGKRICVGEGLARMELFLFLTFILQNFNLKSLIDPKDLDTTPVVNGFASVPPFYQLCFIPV
# Chain of Cytochrome P450 1A2 (P05177 whole entry): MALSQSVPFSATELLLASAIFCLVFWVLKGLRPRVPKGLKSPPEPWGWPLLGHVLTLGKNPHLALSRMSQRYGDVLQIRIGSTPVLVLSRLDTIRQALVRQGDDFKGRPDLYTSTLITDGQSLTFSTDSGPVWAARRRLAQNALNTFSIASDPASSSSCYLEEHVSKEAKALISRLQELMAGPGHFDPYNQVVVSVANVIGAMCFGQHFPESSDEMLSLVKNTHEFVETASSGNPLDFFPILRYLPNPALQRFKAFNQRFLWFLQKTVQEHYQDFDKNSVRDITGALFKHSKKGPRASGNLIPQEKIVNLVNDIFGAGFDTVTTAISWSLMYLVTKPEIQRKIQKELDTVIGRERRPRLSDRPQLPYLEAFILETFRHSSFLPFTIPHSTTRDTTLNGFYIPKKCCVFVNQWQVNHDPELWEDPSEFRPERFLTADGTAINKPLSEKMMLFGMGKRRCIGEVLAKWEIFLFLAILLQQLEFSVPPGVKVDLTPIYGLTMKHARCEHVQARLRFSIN
# Chain of Solute carrier organic anion transporter family member 2B1 (O94956 whole entry): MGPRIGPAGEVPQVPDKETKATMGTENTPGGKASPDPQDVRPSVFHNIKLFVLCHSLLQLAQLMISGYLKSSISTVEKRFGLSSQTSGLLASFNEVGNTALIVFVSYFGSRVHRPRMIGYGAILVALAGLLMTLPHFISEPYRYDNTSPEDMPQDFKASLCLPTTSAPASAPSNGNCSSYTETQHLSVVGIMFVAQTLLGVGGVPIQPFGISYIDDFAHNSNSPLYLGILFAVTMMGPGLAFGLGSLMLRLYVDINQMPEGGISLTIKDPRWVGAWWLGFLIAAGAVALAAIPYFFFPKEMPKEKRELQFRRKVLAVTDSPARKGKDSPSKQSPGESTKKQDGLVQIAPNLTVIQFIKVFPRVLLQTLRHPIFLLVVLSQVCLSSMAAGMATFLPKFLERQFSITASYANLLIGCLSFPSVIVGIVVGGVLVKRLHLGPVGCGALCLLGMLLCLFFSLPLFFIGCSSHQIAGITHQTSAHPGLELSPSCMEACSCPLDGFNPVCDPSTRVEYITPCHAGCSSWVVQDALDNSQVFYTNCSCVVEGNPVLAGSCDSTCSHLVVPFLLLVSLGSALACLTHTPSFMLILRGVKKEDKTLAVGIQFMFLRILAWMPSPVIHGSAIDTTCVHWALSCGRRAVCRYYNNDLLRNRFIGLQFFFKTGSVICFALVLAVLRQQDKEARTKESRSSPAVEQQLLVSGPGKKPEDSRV
# Chain of Sodium channel protein type 5 subunit alpha (Q14524 whole entry): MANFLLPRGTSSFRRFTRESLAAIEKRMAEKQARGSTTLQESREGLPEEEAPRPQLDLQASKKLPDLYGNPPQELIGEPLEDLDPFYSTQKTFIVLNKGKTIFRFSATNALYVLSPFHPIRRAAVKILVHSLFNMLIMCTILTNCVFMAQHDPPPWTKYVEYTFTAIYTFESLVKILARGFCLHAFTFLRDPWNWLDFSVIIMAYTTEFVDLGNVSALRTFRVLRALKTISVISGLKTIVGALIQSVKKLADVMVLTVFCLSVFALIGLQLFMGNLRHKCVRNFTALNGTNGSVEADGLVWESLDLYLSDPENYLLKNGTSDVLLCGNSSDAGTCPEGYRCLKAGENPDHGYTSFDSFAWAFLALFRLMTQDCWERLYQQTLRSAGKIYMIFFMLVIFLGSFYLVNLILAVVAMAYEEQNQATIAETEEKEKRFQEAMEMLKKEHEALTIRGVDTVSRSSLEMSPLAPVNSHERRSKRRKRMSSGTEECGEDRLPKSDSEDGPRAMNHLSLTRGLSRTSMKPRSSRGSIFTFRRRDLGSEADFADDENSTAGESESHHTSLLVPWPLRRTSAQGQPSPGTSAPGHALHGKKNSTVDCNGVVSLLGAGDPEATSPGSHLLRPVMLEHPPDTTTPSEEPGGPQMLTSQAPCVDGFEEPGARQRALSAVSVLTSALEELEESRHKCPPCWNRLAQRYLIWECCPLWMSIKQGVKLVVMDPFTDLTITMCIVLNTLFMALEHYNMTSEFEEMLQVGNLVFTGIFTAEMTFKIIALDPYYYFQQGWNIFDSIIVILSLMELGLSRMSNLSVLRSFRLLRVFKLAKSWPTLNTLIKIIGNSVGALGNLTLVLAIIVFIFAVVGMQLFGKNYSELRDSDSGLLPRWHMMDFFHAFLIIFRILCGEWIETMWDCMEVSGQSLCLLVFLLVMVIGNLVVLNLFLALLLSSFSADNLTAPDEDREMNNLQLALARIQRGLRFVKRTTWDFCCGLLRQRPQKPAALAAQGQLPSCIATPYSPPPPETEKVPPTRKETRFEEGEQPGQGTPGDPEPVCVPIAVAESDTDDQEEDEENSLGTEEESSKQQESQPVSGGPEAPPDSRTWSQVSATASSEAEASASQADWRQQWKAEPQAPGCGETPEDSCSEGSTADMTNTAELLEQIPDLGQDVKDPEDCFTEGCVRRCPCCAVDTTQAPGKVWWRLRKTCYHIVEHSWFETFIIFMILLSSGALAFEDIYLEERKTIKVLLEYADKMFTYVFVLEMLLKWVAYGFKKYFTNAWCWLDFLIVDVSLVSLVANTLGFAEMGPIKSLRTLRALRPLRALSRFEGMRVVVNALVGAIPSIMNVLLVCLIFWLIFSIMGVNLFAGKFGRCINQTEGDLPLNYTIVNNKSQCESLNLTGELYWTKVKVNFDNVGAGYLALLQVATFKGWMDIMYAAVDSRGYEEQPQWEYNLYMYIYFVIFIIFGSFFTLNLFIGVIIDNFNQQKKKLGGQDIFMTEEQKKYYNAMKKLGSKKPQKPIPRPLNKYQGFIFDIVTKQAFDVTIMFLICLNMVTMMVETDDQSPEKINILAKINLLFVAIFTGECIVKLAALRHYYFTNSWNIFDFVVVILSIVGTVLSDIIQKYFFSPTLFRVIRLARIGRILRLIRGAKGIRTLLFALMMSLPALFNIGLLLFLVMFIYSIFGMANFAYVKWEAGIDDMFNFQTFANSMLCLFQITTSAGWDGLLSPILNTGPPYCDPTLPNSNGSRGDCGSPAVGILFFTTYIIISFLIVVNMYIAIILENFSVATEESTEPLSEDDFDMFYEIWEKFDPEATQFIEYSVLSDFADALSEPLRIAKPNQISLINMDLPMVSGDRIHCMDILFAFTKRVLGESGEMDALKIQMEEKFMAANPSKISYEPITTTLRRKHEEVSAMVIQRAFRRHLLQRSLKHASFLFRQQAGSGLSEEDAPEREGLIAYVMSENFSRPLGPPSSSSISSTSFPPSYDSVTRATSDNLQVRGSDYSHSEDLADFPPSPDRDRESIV
# Chain of Solute carrier organic anion transporter family member 1B3 (Q9NPD5 whole entry): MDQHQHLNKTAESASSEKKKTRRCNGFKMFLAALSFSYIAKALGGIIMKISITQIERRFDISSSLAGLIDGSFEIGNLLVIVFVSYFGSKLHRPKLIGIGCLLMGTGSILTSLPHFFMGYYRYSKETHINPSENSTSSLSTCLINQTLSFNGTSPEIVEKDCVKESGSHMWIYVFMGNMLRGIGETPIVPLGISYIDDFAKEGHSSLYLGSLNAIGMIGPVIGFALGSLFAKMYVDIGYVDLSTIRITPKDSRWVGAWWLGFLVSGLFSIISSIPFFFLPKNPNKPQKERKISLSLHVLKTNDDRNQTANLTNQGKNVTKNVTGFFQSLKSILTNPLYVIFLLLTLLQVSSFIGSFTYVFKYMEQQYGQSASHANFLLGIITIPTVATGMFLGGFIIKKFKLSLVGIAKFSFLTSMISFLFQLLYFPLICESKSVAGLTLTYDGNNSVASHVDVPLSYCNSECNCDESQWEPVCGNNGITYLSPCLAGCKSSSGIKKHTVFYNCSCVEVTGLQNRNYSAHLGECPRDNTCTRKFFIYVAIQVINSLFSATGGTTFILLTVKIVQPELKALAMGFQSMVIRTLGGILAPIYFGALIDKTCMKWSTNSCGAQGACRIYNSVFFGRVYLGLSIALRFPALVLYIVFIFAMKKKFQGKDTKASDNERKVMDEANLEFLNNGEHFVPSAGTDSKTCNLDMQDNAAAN
# Chain of Solute carrier family 22 member 6 (Q4U2R8 whole entry): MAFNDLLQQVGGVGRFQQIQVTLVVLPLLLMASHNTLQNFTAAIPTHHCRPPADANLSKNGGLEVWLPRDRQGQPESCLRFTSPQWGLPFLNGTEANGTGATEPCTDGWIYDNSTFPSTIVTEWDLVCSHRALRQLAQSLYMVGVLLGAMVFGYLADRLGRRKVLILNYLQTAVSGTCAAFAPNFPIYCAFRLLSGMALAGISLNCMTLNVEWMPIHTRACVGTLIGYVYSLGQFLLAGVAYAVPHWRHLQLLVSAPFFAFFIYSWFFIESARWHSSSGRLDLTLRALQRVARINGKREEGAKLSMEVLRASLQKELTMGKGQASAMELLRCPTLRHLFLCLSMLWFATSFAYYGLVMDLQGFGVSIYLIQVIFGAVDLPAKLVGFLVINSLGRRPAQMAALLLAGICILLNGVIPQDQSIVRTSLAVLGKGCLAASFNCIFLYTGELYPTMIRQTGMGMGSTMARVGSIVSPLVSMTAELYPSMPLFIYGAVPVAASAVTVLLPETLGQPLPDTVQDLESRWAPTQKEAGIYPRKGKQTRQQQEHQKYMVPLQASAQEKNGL
smiles,measurement,setting,value
N#Cc1cc(S(=O)(=O)Nc2ccc(F)cn2)ccc1Oc1ccc(CO)c(Cl)c1,microsomal CLint,[1],< 14 µL/min/mg
same,efflux ratio,P-gp,1.9
same,efflux ratio,BCRP (ABCG2),34
same,solubility,[2],15.3 µM
same,pKa,[3],5.7
same,microsomal CLint,[4],< 10 µL/min/mg
same,logD,[5],2.1
same,Papp,[6],12 ×10⁻⁶ cm/s
same,microsomal CLint,[7],< 18 µL/min/mg
same,fraction unbound,[8],0.0083
same,fraction unbound,[9],0.0043
same,fraction unbound,[10],0.014
same,fold change (FC),[11],1.181
same,fold change (FC),[12],1.124
same,fold change (FC),[13],1.48
same,IC50,Cytochrome P450 1A2,> 30 µM
same,IC50,Cytochrome P450 2C8,9.9 µM
same,IC50,Cytochrome P450 2C9,2 µM
same,IC50,Cytochrome P450 2C19,17.5 µM
same,IC50,Cytochrome P450 2D6,> 30 µM
same,IC50,Cytochrome P450 3A4,> 30 µM
same,IC50,[14],14.3 µM
same,IC50,[15],0.5 µM
same,IC50,[16],15 µM
same,Activity,[17],105 µM
same,Activity,[18],Non-Toxic
same,Activity,[19],Non-Toxic
same,IC50,[20],> 100 µM
same,IC50,[21],> 30 µM
same,IC50,[22],> 30 µM
same,Ki,[23],> 10 µM
same,hepatocyte CLint,[24],23 µL/min/1e6 cells
same,hepatocyte CLint,[25],82 µL/min/1e6 cells
same,hepatocyte CLint,[26],< 6 µL/min/1e6 cells
same,clearance,[27],1.3 mL/min/kg
same,CL free,[28],93 mL/min/kg
same,half-life,[29],3.9 h
same,Vd,[30],0.27 L/kg
same,bioavailability,[31],50%
same,dose excreted,[32],10%
same,Drug metabolism,[33],Metabolite_Detected
same,Drug metabolism,[34],Metabolite_Detected
same,Drug metabolism,[35],Metabolite_Detected
same,Activity,[36],<= 100 mg/kg/day
same,Activity,[37],Non-Toxic
same,Activity,Rattus norvegicus [38],Non-Toxic
same,Activity,Rattus norvegicus [39],Non-Toxic
same,Activity,Rattus norvegicus [40],Non-Toxic
same,Activity,Rattus norvegicus [41],Non-Toxic
same,Activity,Rattus norvegicus [42],Non-Toxic
same,Activity,Rattus norvegicus [43],Non-Toxic
same,Activity,Rattus norvegicus [44],Non-Toxic
same,fCmax,[45],537 nM
same,Cave,[46],240 nM
same,Activity,Rattus norvegicus [47],<= 300 mg/kg/day
same,Activity,[48],Non-Toxic
same,Activity,[49],Toxic
same,Activity,[50],Toxic
same,Activity,[51],Toxic
same,Activity,[52],Toxic
same,fCmax,[53],3.905 µM
same,Cave,[54],1019 nM
same,Activity,Rattus norvegicus [55],Non-Toxic
same,Activity,Rattus norvegicus [56],Non-Toxic
same,fCmax,[57],98 nM
same,Cave,[58],43 nM
